# Measured values published in patent publication EP0044212B1, “Herbicidal o-alkylsulfonyloxy- and o-alkylsulfonylamino-benzenesulfonamides” (E.I. DU PONT DE NEMOURS AND COMPANY, priority 1980, dated 1982).
# How the values were obtained:
# [1] = system: Wheat; experiment: Test D pre-/post-emergence weed control in cereals; format: in vivo, Triticum aestivum; conditions: 20 days
# Text: (§1) Two ten-inch in diameter plastic pans lined with polyethylene liners were filled with prepared Fallsington slit loam soil. One pan was planted with seeds of wheat (Triticum aestivum), barley (Hordeum vulgarel, wild oats (Avena fatua), downy brome (Bromus tectorum), cheatgrass (Bromus secalinus), blackgrass (Alopecurus myosuroides), annual bluegrass (Poa annual, green foxtail (Setaria viridis), quack grass (Agropyron repens), Italian ryegrass (Lolium multiflorum) and ripgut brome (Bromus rigidus). The other pan was planted with seeds of Russian thistle (Salsola kali), tansy mustard (Descuraina pinnata), smartweed (Polygonum pensylvanicum), tumble mustard (Sisymbrium altissium) kochia (Kochia scoparia), shepherd's purse (Capsella bursa-pastoris), Matricaria inodora, black nightshade (Solanum nigrum), yellow rocket (Barbarea vulgaris), wild mustard (Brassica kaber) and wild buckwheat (Polygonum convolvulus). The above two pans were treated pre-emergence. At the same time two pans in which the above plant species were growing were treated post-emergence. Plant height at the time of treatment ranged from 1-15 cm depending on plant species.
# (§2) The compounds applied were diluted with a non-phytotoxic solvent and sprayed over-the-top of the pans. An untreated control and a solvent alone control were included for comparison. All treatments were maintained in the greenhouse for 20 days at which time the treatments were compared to the controls and the effects visually rated. The recorded data, presented in Table D, indicate that certain compounds from within the scope of the invention have utility for pre- and/or post-emergence weed control in cereal crops such as wheat and barley.
# [2] = system: Wild Oats; experiment: Test D pre-/post-emergence weed control in cereals; format: in vivo, Avena fatua; conditions: 20 days
# Text: as §1, §2
# [3] = system: Cheatgrass; experiment: Test D pre-/post-emergence weed control in cereals; format: in vivo, Bromus secalinus; conditions: 20 days
# Text: as §1, §2
# [4] = system: Blackgrass; experiment: Test D pre-/post-emergence weed control in cereals; format: in vivo, Alopecurus myosuroides; conditions: 0.015 kg/ha, 20 days
# Text: as §1, with “Plant height at the time of treatment ranged from 1-15 cm depending on plant species.” left out
# (§3) The compounds applied were diluted with a non-phytotoxic solvent and sprayed over-the-top of the pans. […] The recorded data, presented in Table D, indicate that certain compounds from within the scope of the invention have utility for pre- and/or post-emergence weed control in cereal crops such as wheat and barley.
# [5] = system: Annual Bluegrass; experiment: Test D pre-/post-emergence weed control in cereals; format: in vivo, Poa annual; conditions: 20 days
# Text: as §1, §2
# [6] = system: Kochia; experiment: Test D pre-/post-emergence weed control in cereals; format: in vivo, Kochia scoparia; conditions: 20 days
# Text: as §1, §2
# [7] = system: Shepherd's Purse; experiment: Test D pre-/post-emergence weed control in cereals; format: in vivo, Capsella bursa-pastoris; conditions: 20 days
# Text: as §1, with “Plant height at the time of treatment ranged from 1-15 cm depending on plant species.” left out
# as §3
# [8] = system: Wild Buckwheat; experiment: Test D pre-/post-emergence weed control in cereals; format: in vivo, Polygonum convolvulus; conditions: Pre-Emergence; 0.015 kg/ha; 20 days
# Text: as §1, with “Plant height at the time of treatment ranged from 1-15 cm depending on plant species.” left out
# as §3
# [9] = system: Peanut; experiment: Test C pre-emergence on Fallsington silt loam soil; format: in vivo, peanuts; conditions: 0.03 kg/ha, 28 days
# Text: (§4) The high herbicidal activity of two of the compounds from within the scope of the invention is evident from the results obtained in this test. The experiment concerned pre-emergence applications on soil. The containers used were 25 cm diameter plastic pots filled with Fallsington silt loam. One set of pots was planted to weeds, the seeds of which were uniformly mixed with the top 1.2 cm layer of soil. The species selected were: johnsongrass (Sorghum halepense), barnyardgrass (Echinochloa crusgalli), crabgrass (Digitaria sanguinalis), giant foxtail (Setaria faberii), velvetleaf (Abutilon theophrasti), jimsonweed (Datura stramonium), mustard (Brassica arvensis), and pigweed (Amaranthus retroflexus). Another set of pots were planted to the following crops with from one to four species per pot: corn (planting depth 3.7 cm), cotton, soybeans, sunflower, Clinton oats, wheat, Black Valentine beans, rice, sorghum, peas, flax, and peanuts (all at 2.5 cm depth), cucumbers, cabbage, alfalfa, safflower, sugarbeets, tomato, spinach, barley, and Kentucky bluegrass (all at 1.2 cm depth). Immediately after planting, the test chemical was applied to the soil surfaces dissolved in a non-phytotoxic solvent. One pot from the weed phase and one of each of the crop species were left untreated for the purpose of comparison. […]
# [10] = system: Oats; experiment: Test C pre-emergence on Fallsington silt loam soil; format: in vivo, Clinton oats; conditions: 0.03 kg/ha, 28 days
# Text: as §4
# [11] = system: Barley; experiment: Test C pre-emergence on Fallsington silt loam soil; format: in vivo; conditions: 0.03 kg/ha, 28 days
# Text: (§5) The high herbicidal activity of two of the compounds from within the scope of the invention is evident from the results obtained in this test. The experiment concerned pre-emergence applications on soil. The containers used were 25 cm diameter plastic pots filled with Fallsington silt loam. One set of pots was planted to weeds, the seeds of which were uniformly mixed with the top 1.2 cm layer of soil. The species selected were: johnsongrass (Sorghum halepense), barnyardgrass (Echinochloa crusgalli), crabgrass (Digitaria sanguinalis), giant foxtail (Setaria faberii), velvetleaf (Abutilon theophrasti), jimsonweed (Datura stramonium), mustard (Brassica arvensis), and pigweed (Amaranthus retroflexus). Another set of pots were planted to the following crops with from one to four species per pot: corn (planting depth 3.7 cm), cotton, soybeans, sunflower, Clinton oats, wheat, Black Valentine beans, rice, sorghum, peas, flax, and peanuts (all at 2.5 cm depth), cucumbers, cabbage, alfalfa, safflower, sugarbeets, tomato, spinach, barley, and Kentucky bluegrass (all at 1.2 cm depth). Immediately after planting, the test chemical was applied to the soil surfaces dissolved in a non-phytotoxic solvent. One pot from the weed phase and one of each of the crop species were left untreated for the purpose of comparison. The treated and untreated pots were promptly watered with approximatley 4 mm of simultated rainfall and then held in a greenhouse for several weeks. Visual weed and crop response ratings were made 28 days after treatment utilizing the rating system as described above for Test A. The data are given in Table C.
# [12] = system: Flax; experiment: Test C pre-emergence on Fallsington silt loam soil; format: in vivo; conditions: 0.03 kg/ha, 28 days
# Text: as §5
# [13] = system: Rice; experiment: Test C pre-emergence on Fallsington silt loam soil; format: in vivo; conditions: 0.03 kg/ha, 28 days
# Text: as §5
# [14] = system: Sunflower; experiment: Test C pre-emergence on Fallsington silt loam soil; format: in vivo; conditions: 0.03 kg/ha, 28 days
# Text: as §5
# [15] = system: Tomato; experiment: Test C pre-emergence on Fallsington silt loam soil; format: in vivo; conditions: 0.03 kg/ha, 28 days
# Text: as §5
# [16] = system: Wheat; experiment: Test C pre-emergence on Fallsington silt loam soil; format: in vivo; conditions: 0.03 kg/ha, 28 days
# Text: as §5
# [17] = system: Bean; experiment: Test C pre-emergence on Fallsington silt loam soil; format: in vivo, Black Valentine beans; conditions: 0.03 kg/ha, 28 days
# Text: as §4
# [18] = system: Ky. bluegrass; experiment: Test C pre-emergence on Fallsington silt loam soil; format: in vivo, Kentucky bluegrass; conditions: 0.03 kg/ha, 28 days
# Text: as §4
# [19] = system: Rice; experiment: Test F over-the-top soil/foliage treatment; format: in vivo; conditions: soil/foliage spray, ~14 days
# In short: (§6)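 Seed in sandy loam (Woodstown), grow in greenhouse. Spray compound, dissolved in a non-phytotoxic solvent, over plants and soil at ~14 days after planting. Score response visually versus untreated controls after ~14 days.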
# [20] = system: Soybeans; experiment: Test F over-the-top soil/foliage treatment; format: in vivo; conditions: for Soybeans response rating: soil/foliage spray, ~14 days
# In short: as §6
# [21] = system: Velvetleaf; experiment: Test F over-the-top soil/foliage treatment; format: in vivo, Abutilon theophrasti; conditions: soil/foliage spray, ~14 days
# Method: The test chemicals, dissolved in a non-phytotoxic solvent, were applied in an overall spray to the foliage and surrounding […] of selected plant species. […] Approximately fourteen days after treatment, all species were visually compared to untreated controls and rated for response to treatment.
# All plant species were seeded in Woodstown sandy loam soil and grown in a greenhouse. The following species were grown in soil contained in plastic pots (25 cm diameter by 13 cm deep): soybeans, cotton, alfalfa, corn, rice, wheet, sorghum, velvetleaf (Abutilon theophrasti), sesbania (Sesbania exaltata), Cassia (Cassia tora), morningglory (Ipomoea hederacea), jimsonweed (Datura stramonium), cocklebur (Xanthium pensylvanicum), crabgrass (Digitaria spp.), nutsedge (Cyperus rotundus), barnyardgrass (Echinochloa crusgalli), giant foxtail (Setaria faberii) and wild oats (Avena fatua). The following species were grown in soil in a paper cup (12 cm diameter by 13 cm deep): sunflower, sugarbeets, and mustard. All plants were sprayed approximately 14 days after planting.
smiles,measurement,setting,value
"CCCS(=O)(=O)Oc1ccccc1S(=O)(=O)NC(=O)Nc1nc(OC)cc(OC)n1 [Compound 36, N-[(4,6-dimethoxypropimidin-2-yl)aminocarbonyl]-2-hydroxybenzenesulfonamide, 1-propanesulfonate]",Wheat response rating,"[1]; Post-Emergence, 0.015 kg/ha",0
same,Wheat response rating,"[1]; Post-Emergence, 0.06 kg/ha",0
same,Wheat response rating,"[1]; Pre-Emergence, 0.015 kg/ha",0
same,Wheat response rating,"[1]; Pre-Emergence, 0.06 kg/ha",0
same,Wild Oats response rating,"[2]; Post-Emergence, 0.015 kg/ha",0
same,Wild Oats response rating,"[2]; Post-Emergence, 0.06 kg/ha",0
same,Wild Oats response rating,"[2]; Pre-Emergence, 0.015 kg/ha",0
same,Wild Oats response rating,"[2]; Pre-Emergence, 0.06 kg/ha",0
same,Cheatgrass response rating,"[3]; Post-Emergence, 0.015 kg/ha",1G
same,Cheatgrass response rating,"[3]; Pre-Emergence, 0.015 kg/ha",7G
same,Cheatgrass response rating,"[3]; Pre-Emergence, 0.06 kg/ha",10C
same,Blackgrass response rating,[4]; Post-Emergence,2G
same,Blackgrass response rating,[4]; Pre-Emergence,6G
same,Annual Bluegrass response rating,"[5]; Post-Emergence, 0.015 kg/ha",2G
same,Annual Bluegrass response rating,"[5]; Post-Emergence, 0.06 kg/ha",3G
same,Annual Bluegrass response rating,"[5]; Pre-Emergence, 0.015 kg/ha",6G
same,Kochia response rating,"[6]; Post-Emergence, 0.015 kg/ha",0
same,Kochia response rating,"[6]; Post-Emergence, 0.06 kg/ha",0
same,Kochia response rating,"[6]; Pre-Emergence, 0.015 kg/ha",0
same,Shepherd's Purse response rating,"[7]; Post-Emergence, 0.06 kg/ha",10C
same,Shepherd's Purse response rating,"[7]; Pre-Emergence, 0.015 kg/ha",7G
same,Wild Buckwheat response rating,[8],3G
"COc1cc(OC)nc(NC(=O)NS(=O)(=O)c2ccccc2OS(C)(=O)=O)n1 [Compound 1, N-[(4,6-Dimethoxypyrimidin-2-yl)aminocarbonyl]-2-hydroxybenzenesulfonamide, methanesulfonate]",Peanut response rating,[9],6G
same,Oats response rating,[10],4G
same,Barley response rating,[11],3G
same,Flax response rating,[12],6G
same,Rice response rating,[13],6G
same,Sunflower response rating,[14],5G
same,Tomato response rating,[15],4G
same,Wheat response rating,[16],2G
same,Bean response rating,[17],0
same,Ky. bluegrass response rating,[18],7G
"CCCS(=O)(=O)Oc1ccccc1S(=O)(=O)NC(=O)Nc1nc(C)nc(OC)n1 [Compound 39, 2-hydroxy-N-[(4-methoxy-6-methyl-1,3,5-triazin-2-yl)aminocarbonyl]benzenesulfonamide, 1-propanesulfonate]",Rice response rating,[19]; 0.007 kg/ha,2G
same,Rice response rating,[19]; 0.03 kg/ha,4G
same,Rice response rating,[19]; 0.06 kg/ha,0
same,Rice response rating,[19]; 0.12 kg/ha,0
same,post-emergence control of weeds in soybeans,[20]; conclusion from Test F,has utility for the post-emergence control of weeds in soybeans
same,Soybeans response rating,[20]; 0.007 kg/ha,0
same,Soybeans response rating,[20]; 0.03 kg/ha,4G
"Cc1cc(C)nc(NC(=O)NS(=O)(=O)c2ccccc2OS(C)(=O)=O)n1 [Compound 3, N-[(4,6-dimethylpyrimidin-2-yl)aminocarbonyl]-2-hydroxybenzenesulfonamide, methanesulfonate]",Velvetleaf response rating,[21]; 0.003 kg/ha,7G
same,Velvetleaf response rating,[21]; 0.015 kg/ha,5G
